Data on two substances can be found in patent US20110117166A1, “IMPLANTABLE BONE GRAFT MATERIALS” (AFFINERGY, INC., priority 2009, published 2011).

Ends that are not written are not given here.

For one assay, the system named is rat calvarial defect. The assay is described as follows: Rat calvarial defect model of bone healing (μCT and histology). Type of assay: in vivo. The settings on record: conclusion from saline-hydrated groups. The protocol: The ability of each of the bone void filler collagen/TCP composites (unmodified and BMP binding peptide modified at 5-15 μmol peptide/g collagen described in Example 5) to speed bone healing was assessed in a rat calvarial defect model. A defect was introduced into male Sprague Dawley rats (n=8) as described previously (Poehling, et. al, J Periodontol, 2006, 77:1582-90). A full thickness circular defect, 6.8 mm in diameter, was made in the parietal bone, centered across the midline. The disc of bone was removed, and the void was filled with bone graft substitute material hydrated with or without BMA harvested from the tibia (saline was used for hydration without BMA). […] The calvaria were removed and analyzed by micro-computed tomography (μCT) to provide measurements of bone density (SCANCO MEDICAL; Wayne, Pa.). […] For each sample, 6 sections evenly distributed across the defect were scored by two independent observers, blind to the treatment groups. The slides were scored for osteogenic cellular activity, new bone area, and new bone maturity according to the following procedure. For osteogenic cellular activity, fibroblasts/loose connective tissue, immature cartilage progenitors, immature bone progenitors, giant cells, osteoclasts, osteoblasts, and osteocytes were counted and scored according to the following scale: 1=Rare; 2=Few; 3=Moderate; and 4=Dense. […]

The target in another assay is T1, BMP-7 (Homo sapiens, UniProt P18075).
T1 sequence (P18075 293-431): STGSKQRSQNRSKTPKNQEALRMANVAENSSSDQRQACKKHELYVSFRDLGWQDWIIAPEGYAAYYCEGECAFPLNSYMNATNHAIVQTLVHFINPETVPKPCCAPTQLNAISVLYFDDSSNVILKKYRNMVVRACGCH
Briefly: ELISA of BMP-7 bound to immobilized BMP binding peptides. The settings on record: FIG. 14B. On the technique in general: An ELISA detects its analyte on a solid surface through an enzyme-linked reagent.

For another assay, the system named is C2C12 cells. Briefly: Alkaline phosphatase secretion by C2C12 cells in response to BMP-2 with BMP binding peptide in solution. Type of assay: cell-based. The conditions noted are these: peptide 0-3500 nM, 3 days, FIG. 16. The protocol: In an experiment to test the biological activity of BMP-2 delivered by BMP binding peptide, alkaline phosphatase secreted by C2C12 cells in response to BMP-2 was measured in the presence and absence of BMP binding peptide in solution. C2C12 cells were incubated with BMP-2 (35 nM) and BMP binding peptide at a concentration ranging from 0-3500 nM. The C2C12 cells were incubated with the BMP-2 and BMP binding peptide for 3 days and the alkaline phosphatase assay was performed as described herein above.

In a further assay the target is T2, BMP-2 (Homo sapiens, UniProt P12643).
T2 sequence (P12643 283-396): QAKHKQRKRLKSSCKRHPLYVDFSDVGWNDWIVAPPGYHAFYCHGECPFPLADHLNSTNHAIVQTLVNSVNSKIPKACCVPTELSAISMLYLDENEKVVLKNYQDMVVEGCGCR
Briefly: ELISA of BMP-2 bound to biotinylated peptides immobilized on streptavidin plates. In kind it is binding. The conditions noted are these: FIG. 14A; BMP-2 200 nM, 20 nM and 2 nM, 45 minutes. The protocol: BMP binding peptides SEQ ID NOs:1-4 & 8-10 were identified as described in US Patent Application Publication No. US20060051395A1. Briefly, the peptides were identified by phage display using immobilized BMP-2 as a substrate for the phage library selections. Synthetic peptides SEQ ID NOs: 1-2 were determined to bind to BMP-2 with a relative EC50 value of 0.8 nM and 0.9 nM, respectively (data not shown). Separately, the relative binding affinity of peptides SEQ ID NOs: 1-2 for BMP-2 is shown in FIG. 14A (SEQ ID NO: 1 is denoted as P9 and SEQ ID NO: 2 is denoted as P10). Briefly, the results shown in FIG. 14A were generated by immobilizing biotinylated BMP binding peptides SEQ ID NOs:1 & 2 on streptavidin coated plates. Serial dilutions of 200 nM, 20 nM and 2 nM of BMP-2 were incubated with the immobilized BMP binding peptides for 45 minutes, washed, and bound BMP quantified using ELISA.

Regarding “GGALGFPLKGEVVEGWA-NH2 (C-terminus assumed) [SEQ ID NO: 2]”, in the assay with rat calvarial defect, the “bioactivity of the peptide itself in bone formation” value is on record as “does not possess bioactivity itself”. Besides, the “relative affinity for BMP-7” value at BMP-7 is “high relative affinity”. Further, the “effect on BMP-2 biological activity (alkaline phosphatase secretion)” value in the assay on C2C12 cells (BMP-2 35 nM) was “does not interfere with the biological activity of BMP-2”. Further, the “BMP-2 activity of the peptide on its own (alkaline phosphatase secretion)” value in the assay with C2C12 cells is on record as “does not have BMP-2 activity on its own”. Besides, the “relative affinity for BMP-2” value at BMP-2 is recorded as “high relative affinity”.
Consider “GGGAWEAFSSLSGSRV-NH2 (C-terminus assumed) [SEQ ID NO: 1]”, for which the “relative affinity for BMP-7” value on BMP-7 was “high relative affinity”. Moreover, the “relative affinity for BMP-2” value at BMP-2 is listed as “high relative affinity”.
